One data set deals with Rat hepatocytes. Briefly: Rat hepatocyte Clint. The following applies: rat hepatocytes.
The target of the next data set is WT c-MET (Homo sapiens, UniProt P08581). Type of data set: biochemical. The following applies: LLE = pIC50 – log D.

Like-named read-outs stand apart in the source and are kept apart here.

Sequence of WT c-MET (P08581 25-1390): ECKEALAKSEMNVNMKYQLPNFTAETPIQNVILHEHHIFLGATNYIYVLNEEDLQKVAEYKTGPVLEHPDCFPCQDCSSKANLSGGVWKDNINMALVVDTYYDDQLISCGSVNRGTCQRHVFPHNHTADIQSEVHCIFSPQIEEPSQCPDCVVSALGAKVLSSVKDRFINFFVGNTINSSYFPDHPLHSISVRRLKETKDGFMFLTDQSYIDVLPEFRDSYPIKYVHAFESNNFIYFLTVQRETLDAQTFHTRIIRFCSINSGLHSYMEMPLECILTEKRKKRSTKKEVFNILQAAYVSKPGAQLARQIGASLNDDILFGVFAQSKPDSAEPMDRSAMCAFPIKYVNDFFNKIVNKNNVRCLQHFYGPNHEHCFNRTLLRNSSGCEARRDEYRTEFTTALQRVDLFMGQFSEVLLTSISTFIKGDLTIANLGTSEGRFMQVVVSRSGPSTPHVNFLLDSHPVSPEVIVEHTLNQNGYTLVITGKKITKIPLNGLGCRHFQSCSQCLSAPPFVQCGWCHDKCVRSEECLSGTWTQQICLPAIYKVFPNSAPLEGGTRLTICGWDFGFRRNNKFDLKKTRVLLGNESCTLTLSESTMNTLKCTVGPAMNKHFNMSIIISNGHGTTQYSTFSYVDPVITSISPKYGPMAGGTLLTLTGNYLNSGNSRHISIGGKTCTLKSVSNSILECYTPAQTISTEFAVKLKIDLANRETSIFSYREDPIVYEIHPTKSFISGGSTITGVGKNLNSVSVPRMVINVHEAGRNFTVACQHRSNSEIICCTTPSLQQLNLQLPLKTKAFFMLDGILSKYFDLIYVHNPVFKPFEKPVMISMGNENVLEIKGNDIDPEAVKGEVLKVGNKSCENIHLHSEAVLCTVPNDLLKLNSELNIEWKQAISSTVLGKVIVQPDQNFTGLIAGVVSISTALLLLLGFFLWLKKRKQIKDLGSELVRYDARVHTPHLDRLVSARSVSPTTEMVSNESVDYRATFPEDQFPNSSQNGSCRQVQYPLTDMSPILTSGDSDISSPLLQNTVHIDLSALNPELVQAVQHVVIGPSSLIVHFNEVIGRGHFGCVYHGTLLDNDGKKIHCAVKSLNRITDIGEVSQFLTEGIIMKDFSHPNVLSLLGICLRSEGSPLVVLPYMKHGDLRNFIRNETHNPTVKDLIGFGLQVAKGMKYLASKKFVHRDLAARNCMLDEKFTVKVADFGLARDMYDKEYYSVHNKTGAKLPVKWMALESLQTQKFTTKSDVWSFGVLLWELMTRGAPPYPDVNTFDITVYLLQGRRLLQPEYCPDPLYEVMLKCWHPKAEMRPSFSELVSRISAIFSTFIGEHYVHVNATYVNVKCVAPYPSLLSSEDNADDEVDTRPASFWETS

Take `CC(c1ccccc1)n1cc(-c2ccccc2)c(=O)[nH]c1=O` (stereo not drawn) [Compound 11, 5-Phenyl-1-(1-phenylethyl)pyrimidine-2,4(1H,3H)-dione]: the RH with Rat hepatocytes (Table 1) stood at 185 μL/min/10^6 cells. For `CC(c1ccccc1)n1cc(-c2cccc3c(F)n[nH]c23)c(=O)[nH]c1=O` (stereo not drawn) [Compound 17, 5-(3-Fluoro-1H-indazol-7-yl)-1-(1-phenylethyl)pyrimidine-2,4(1H,3H)-dione], the RH in the data set on Rat hepatocytes (Table 2) worked out at 49.4 μL/min/10^6 cells. The “ADP-Glo assay LLE WT” value at WT c-MET (Table 2) stood at 3.1.

`CC(c1ccccc1)n1cc(-c2c(F)ccc3cn[nH]c23)c(=O)[nH]c1=O` (stereo not drawn) [Compound 20, 5-(6-Fluoro-1H-indazol-7-yl)-1-(1-phenylethyl)pyrimidine-2,4(1H,3H)-dione]: the RH in the data set on Rat hepatocytes (Table 2) was 28.3 μL/min/10^6 cells. On WT c-MET (Table 2), the “ADP-Glo assay LLE WT” value worked out at 3.2. As for `CC(c1ccc(F)cc1)n1cc(-c2cc(F)cc3cn[nH]c23)c(=O)[nH]c1=O` (stereo not drawn) [Compound 26, 5-(5-Fluoro-1H-indazol-7-yl)-1-(1-(4-fluorophenyl)ethyl)pyrimidine-2,4(1H,3H)-dione], in the data set with Rat hepatocytes (Table 3), the RH came to 11.9 μL/min/10^6 cells. Further, the “ADP-Glo assay LLE WT” value at WT c-MET (Table 3) is recorded as 3.5.

On to `CC(c1ccccc1)n1cc(-c2ncccn2)c(=O)[nH]c1=O` (stereo not drawn) [Compound 13, 1′-(1-Phenylethyl)-[2,5′-bipyrimidine]-2′,4′(1′H,3′H)-dione], for which the RH in the data set with Rat hepatocytes (Table 1) was determined as 4.67 μL/min/10^6 cells. In the data set on Rat hepatocytes (Table 3), `CC(c1ccccn1)n1cc(-c2cc(F)cc3c(C#N)n[nH]c23)c(=O)[nH]c1=O` (stereo not drawn) [Compound 23, 7-(2,4-Dioxo-1-(1-(pyridin-2-yl)ethyl)-1,2,3,4-tetrahydropyrimidin-5-yl)-5-fluoro-1H-indazole-3-carbonitrile] displayed an RH of 3.08 μL/min/10^6 cells. For the same compound, the “ADP-Glo assay LLE WT” value on WT c-MET (Table 3) came out at 3.8. Turning to `CC(c1ccccc1)n1cc(-c2cc(F)cc3c(C#N)n[nH]c23)c(=O)[nH]c1=O` (stereo not drawn) [Compound 22, 7-(2,4-Dioxo-1-(1-phenylethyl)-1,2,3,4-tetrahydropyrimidin-5-yl)-5-fluoro-1H-indazole-3-carbonitrile], the RH in the data set on Rat hepatocytes (Table 2) is recorded as 51.4 μL/min/10^6 cells. Besides, on WT c-MET (Table 2), the “ADP-Glo assay LLE WT” value came out at 3.8. For `CC(c1ccccc1)n1cc(-c2cccc3c(C#N)n[nH]c23)c(=O)[nH]c1=O` (stereo not drawn) [Compound 19, 7-(2,4-Dioxo-1-(1-phenylethyl)-1,2,3,4-tetrahydropyrimidin-5-yl)-1H-indazole-3-carbonitrile], in that order: 41.4 μL/min/10^6 cells and 3.4. Compound `C#Cc1n[nH]c2c(-c3cn([C@@H](C)c4ccccc4)c(=O)[nH]c3=O)cc(F)cc12` [Compound 30, (S)-5-(3-Ethynyl-5-fluoro-1H-indazol-7-yl)-1-(1-phenylethyl)pyrimidine-2,4(1H,3H)-dione] gave an RH in the data set with Rat hepatocytes (Table 3) of 15.0 μL/min/10^6 cells.

With `CC(c1ccccc1)n1cc(-c2cc(F)cc3cn[nH]c23)c(=O)[nH]c1=O` (stereo not drawn) [Compound 21, 5-(5-Fluoro-1H-indazol-7-yl)-1-(1-phenylethyl)pyrimidine-2,4(1H,3H)-dione], the RH in the data set with Rat hepatocytes (Table 2) is 14.0 μL/min/10^6 cells. Besides, the “ADP-Glo assay LLE WT” value at WT c-MET (Table 2) worked out at 3.9. Compound `C#Cc1n[nH]c2c(-c3cn([C@@H](C)c4ccccn4)c(=O)[nH]c3=O)cc(F)cc12` [Compound 32, (S)-5-(3-Ethynyl-5-fluoro-1H-indazol-7-yl)-1-(1-(pyridin-2-yl)ethyl)pyrimidine-2,4(1H,3H)-dione] gave an RH in the data set with Rat hepatocytes (Table 3) of 6.07 μL/min/10^6 cells. Further, the “ADP-Glo assay LLE WT” value on WT c-MET (Table 3) is given as 5.1.

In turn, `Cc1n[nH]c2c(-c3cn(C(C)c4ccccc4)c(=O)[nH]c3=O)cccc12` (stereo not drawn) [Compound 18, 5-(3-Methyl-1H-indazol-7-yl)-1-(1-phenylethyl)pyrimidine-2,4(1H,3H)-dione] showed an RH in the data set on Rat hepatocytes (Table 2) of 37.0 μL/min/10^6 cells. Besides, at WT c-MET (Table 2), the “ADP-Glo assay LLE WT” value is 3.6.

The values are drawn from PMC10350928 (Journal of Medicinal Chemistry, 2023).
